For three compounds, activity, melting point and viability results are on record in patent US20090253709A1 (NATIONAL DEFENSE MEDICAL CENTER, priority 2008, published 2009).

By melting point is commonly meant the temperature of the solid-liquid transition.

The first data set deals with hTERT expression. In words: SEAP assay in hTERT-BJ1-PTERT(3.4)-SEAP cells. The following applies: Homo sapiens; BJ1; compound concentration 1 μM; read-out: SEAP (Inhibition μM ± SD). It counts as cell-based. How it is done:
A total of 2×10^3 hTERT-BJ1-PTERT(3.4)-SEAP cells were seeded in the 96-well cell culture plate, and incubated with DMEM (GIBCO®)/glucose mixture and Medium 199 (GIBCO®)/10% FBS/1 mM sodium pyruvate (GIBCO®)/4 mM L-glutamine (GIBCO®) mixture at a ratio of 4:1 at 37° C. for 24 hours. When the cells were attached in the bottom of the well, the seriously-diluted compounds with different concentrations ([…]) were treated with the cells for 48 hours, and the PTERT(3.4)-SEAP cells without drug treatment were being the control. After 48 hours of drug treatment, the cultured medium were collected for performing the analysis of SEAP activity. The cells were washed with 1×PBS once immediately, and the MTT assay was performed to compare the compounds with the relative toxicity or the influence to the proliferation and activity.
The cellular medium after the cellular incubation was transferred into the eppondorf tube, and the activity of endogeneous alkaline phosphatase was inactivated at 65° C. for 10 minutes. After centrification, the mixture was obtained by mixing 50 μl of the supernatant with the equal volume of the SEAP buffer. The mixture and the substrate (120 mM of p-nitrophenylphosphate) were preheated at 37° C. for 10 minutes respectively, and the mixture and the substrate were mixed at a ratio of 1:10 and reacted at 37° C. The absorbance of visible light at 405 nm was determined at the appropriate time intervals, and the enzymatic activity of SEAP was represented by the speed of the increasing absorbance at 405 nm.
In the case of `CC(C)CNCC(=O)Nc1ccc2c(c1)C(=O)c1cc(NC(=O)CNCC(C)C)ccc1C2=O` [Compound 14, 2,7-Bis[2-(isobutylamino)acetamido]anthraquinone], the activity at 1 µM came to 83 ± 5%.
Same read-out and setting: in the case of `CCCCNCCC(=O)Nc1ccc2c(c1)C(=O)c1cc(NC(=O)CCNCCCC)ccc1C2=O` [Compound 17, 2,7-Bis[3-(butylamino)propionamido]anthraquinone] it was 88 ± 34%.
Take `O=C(CCN1CCCCC1)Nc1ccc2c(c1)C(=O)c1cc(NC(=O)CCN3CCCCC3)ccc1C2=O` [Compound 19, 2,7-Bis[3-(piperidino)propionamido]anthraquinone]: the activity at 1 µM came to 186 ± 47%.

The same data set, now with this note: Homo sapiens; BJ1; compound concentration 10 μM; read-out: SEAP (Inhibition μM ± SD).
Turning to `CC(C)CNCC(=O)Nc1ccc2c(c1)C(=O)c1cc(NC(=O)CNCC(C)C)ccc1C2=O` [Compound 14, 2,7-Bis[2-(isobutylamino)acetamido]anthraquinone], the activity at 10 µM turned out to be 44 ± 2%.
Regarding `CCCCNCCC(=O)Nc1ccc2c(c1)C(=O)c1cc(NC(=O)CCNCCCC)ccc1C2=O` [Compound 17, 2,7-Bis[3-(butylamino)propionamido]anthraquinone], the activity at 10 µM was 95 ± 46%.
Still for that read-out and setting: the value for `O=C(CCN1CCCCC1)Nc1ccc2c(c1)C(=O)c1cc(NC(=O)CCN3CCCCC3)ccc1C2=O` [Compound 19, 2,7-Bis[3-(piperidino)propionamido]anthraquinone] was 226 ± 51%.

The same data set, now with this note: Homo sapiens; BJ1; compound concentration 100 μM; read-out: SEAP (Inhibition μM ± SD).
For `CC(C)CNCC(=O)Nc1ccc2c(c1)C(=O)c1cc(NC(=O)CNCC(C)C)ccc1C2=O` [Compound 14, 2,7-Bis[2-(isobutylamino)acetamido]anthraquinone], the activity at 100 µM was 40 ± 3%.
On the same count and under the same terms, in the case of `CCCCNCCC(=O)Nc1ccc2c(c1)C(=O)c1cc(NC(=O)CCNCCCC)ccc1C2=O` [Compound 17, 2,7-Bis[3-(butylamino)propionamido]anthraquinone] it was 111 ± 25%; in that of `O=C(CCN1CCCCC1)Nc1ccc2c(c1)C(=O)c1cc(NC(=O)CCN3CCCCC3)ccc1C2=O` [Compound 19, 2,7-Bis[3-(piperidino)propionamido]anthraquinone], 234 ± 20%.

System in the next data set: not given
Test: not given
Conditions: not given
`CC(C)CNCC(=O)Nc1ccc2c(c1)C(=O)c1cc(NC(=O)CNCC(C)C)ccc1C2=O` [Compound 14, 2,7-Bis[2-(isobutylamino)acetamido]anthraquinone] had a melting point of 146 °C.
The compound `CCCCNCCC(=O)Nc1ccc2c(c1)C(=O)c1cc(NC(=O)CCNCCCC)ccc1C2=O` [Compound 17, 2,7-Bis[3-(butylamino)propionamido]anthraquinone] registered a melting point of 168 °C.
`O=C(CCN1CCCCC1)Nc1ccc2c(c1)C(=O)c1cc(NC(=O)CCN3CCCCC3)ccc1C2=O` [Compound 19, 2,7-Bis[3-(piperidino)propionamido]anthraquinone] showed a melting point of 266 °C.

System in the next data set: not listed separately
Briefly: MTT assay in BJ1 cells. In kind it is cell-based. The following applies: human, hTERT-BJ1-PTERT(3.4)-SEAP cells; BJ1; compound concentration 1 μM; read-out: MTT (Inhibition μM ± SD). In outline: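 After 48 h drug treatment, cells in DMEM/Medium 199 (4:1) with 10% FBS were given MTT (5 mg/ml stock) in serum-free medium for 4 h at 37 °C, lysed overnight in 20% SDS/50% DMF, and absorbance read at 570 nm.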
(In general: Tetrazolium assays rely on reduction of a dye to a coloured formazan, in cell work by metabolically active cells.)
As to `CC(C)CNCC(=O)Nc1ccc2c(c1)C(=O)c1cc(NC(=O)CNCC(C)C)ccc1C2=O` [Compound 14, 2,7-Bis[2-(isobutylamino)acetamido]anthraquinone], the viability at 48 h, 1 µM turned out to be 107 ± 3%.
Still for that read-out and setting: the value for `CCCCNCCC(=O)Nc1ccc2c(c1)C(=O)c1cc(NC(=O)CCNCCCC)ccc1C2=O` [Compound 17, 2,7-Bis[3-(butylamino)propionamido]anthraquinone] was 80 ± 3%; that for `O=C(CCN1CCCCC1)Nc1ccc2c(c1)C(=O)c1cc(NC(=O)CCN3CCCCC3)ccc1C2=O` [Compound 19, 2,7-Bis[3-(piperidino)propionamido]anthraquinone] was 92 ± 6%.

The data set is the same for the next values; noted with them: human, hTERT-BJ1-PTERT(3.4)-SEAP cells; BJ1; compound concentration 10 μM; read-out: MTT (Inhibition μM ± SD).
In the case of `CC(C)CNCC(=O)Nc1ccc2c(c1)C(=O)c1cc(NC(=O)CNCC(C)C)ccc1C2=O` [Compound 14, 2,7-Bis[2-(isobutylamino)acetamido]anthraquinone], the viability at 48 h, 10 µM came out at 37%.
As to `CCCCNCCC(=O)Nc1ccc2c(c1)C(=O)c1cc(NC(=O)CCNCCCC)ccc1C2=O` [Compound 17, 2,7-Bis[3-(butylamino)propionamido]anthraquinone], the viability at 48 h, 10 µM was found to be 70 ± 1%.
Same read-out and setting: the value for `O=C(CCN1CCCCC1)Nc1ccc2c(c1)C(=O)c1cc(NC(=O)CCN3CCCCC3)ccc1C2=O` [Compound 19, 2,7-Bis[3-(piperidino)propionamido]anthraquinone] was 54 ± 2%.

Staying with this data set, now noted: human, hTERT-BJ1-PTERT(3.4)-SEAP cells; BJ1; compound concentration 100 μM; read-out: MTT (Inhibition μM ± SD).
Consider `CC(C)CNCC(=O)Nc1ccc2c(c1)C(=O)c1cc(NC(=O)CNCC(C)C)ccc1C2=O` [Compound 14, 2,7-Bis[2-(isobutylamino)acetamido]anthraquinone], for which the viability at 48 h, 100 µM is 39%.
The same measure, in the same setting: the value for `CCCCNCCC(=O)Nc1ccc2c(c1)C(=O)c1cc(NC(=O)CCNCCCC)ccc1C2=O` [Compound 17, 2,7-Bis[3-(butylamino)propionamido]anthraquinone] was 40%; that for `O=C(CCN1CCCCC1)Nc1ccc2c(c1)C(=O)c1cc(NC(=O)CCN3CCCCC3)ccc1C2=O` [Compound 19, 2,7-Bis[3-(piperidino)propionamido]anthraquinone] was 41 ± 2%.

System in a further data set: not listed separately
Briefly: MTT assay in H1299 cells. In kind it is cell-based. The following applies: human, H1299 cells (H1299/PhTERT-driven SEAP reporter system); H1299; compound concentration 1 μM; read-out: MTT (Inhibition μM ± SD). Summed up:
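H1299 cells, 2×10^3 per well, treated with drug 48 h. MTT (5 mg/ml stock) added for 4 h at 37° C, then SDS/DMF lysis overnight; absorbance at 570 nm gives viability, used alongside SEAP reporter readout to correct for cell number.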
`CC(C)CNCC(=O)Nc1ccc2c(c1)C(=O)c1cc(NC(=O)CNCC(C)C)ccc1C2=O` [Compound 14, 2,7-Bis[2-(isobutylamino)acetamido]anthraquinone]: the viability at 24 h, 1 µM worked out at 108 ± 8%.
The same measure, in the same setting: the value for `CCCCNCCC(=O)Nc1ccc2c(c1)C(=O)c1cc(NC(=O)CCNCCCC)ccc1C2=O` [Compound 17, 2,7-Bis[3-(butylamino)propionamido]anthraquinone] was 82 ± 12%.
Take `O=C(CCN1CCCCC1)Nc1ccc2c(c1)C(=O)c1cc(NC(=O)CCN3CCCCC3)ccc1C2=O` [Compound 19, 2,7-Bis[3-(piperidino)propionamido]anthraquinone]: the viability at 24 h, 1 µM was 87 ± 15%.

Still in this data set, the particulars now being: human, H1299 cells (H1299/PhTERT-driven SEAP reporter system); H1299; compound concentration 10 μM; read-out: MTT (Inhibition μM ± SD).
Turning to `CC(C)CNCC(=O)Nc1ccc2c(c1)C(=O)c1cc(NC(=O)CNCC(C)C)ccc1C2=O` [Compound 14, 2,7-Bis[2-(isobutylamino)acetamido]anthraquinone], the viability at 24 h, 10 µM came to 39 ± 10%.
Take `CCCCNCCC(=O)Nc1ccc2c(c1)C(=O)c1cc(NC(=O)CCNCCCC)ccc1C2=O` [Compound 17, 2,7-Bis[3-(butylamino)propionamido]anthraquinone]: the viability at 24 h, 10 µM stood at 52 ± 4%.
For `O=C(CCN1CCCCC1)Nc1ccc2c(c1)C(=O)c1cc(NC(=O)CCN3CCCCC3)ccc1C2=O` [Compound 19, 2,7-Bis[3-(piperidino)propionamido]anthraquinone], the viability at 24 h, 10 µM was 44 ± 7%.

The same data set, now with this note: human, H1299 cells (H1299/PhTERT-driven SEAP reporter system); H1299; compound concentration 100 μM; read-out: MTT (Inhibition μM ± SD).
Turning to `CC(C)CNCC(=O)Nc1ccc2c(c1)C(=O)c1cc(NC(=O)CNCC(C)C)ccc1C2=O` [Compound 14, 2,7-Bis[2-(isobutylamino)acetamido]anthraquinone], the viability at 24 h, 100 µM worked out at 11 ± 5%.
Still for that read-out and setting: the value for `CCCCNCCC(=O)Nc1ccc2c(c1)C(=O)c1cc(NC(=O)CCNCCCC)ccc1C2=O` [Compound 17, 2,7-Bis[3-(butylamino)propionamido]anthraquinone] was 14 ± 10%; that for `O=C(CCN1CCCCC1)Nc1ccc2c(c1)C(=O)c1cc(NC(=O)CCN3CCCCC3)ccc1C2=O` [Compound 19, 2,7-Bis[3-(piperidino)propionamido]anthraquinone] was 18 ± 9%.
